Results taken from publication PMC4838876, “Multivalent display of minimal Clostridium difficile glycan epitopes mimics antigenic properties of larger glycans” (Nature Communications, 2016).

Experiments:
[1] = system: anti-PS-I mAbs 2C5, 10A1 and 10D6; assay: Kinetic SPR, summary over the three anti-PS-I mAbs; format: binding, mouse; conditions: for Kd: SPR, range over mAbs 2C5, 10A1, 10D6
Method: Kinetic SPR experiments were performed to determine the binding strengths of the mAbs to PS-I glycans expressed as dissociation constants (KD)[8] (Fig. 5a). […] Overall, the SPR measurements (summarized in Table 1) confirmed results obtained by glycan microarray presented above.
Binding analyses were carried out on a Biacore T100 instrument (GE Healthcare). CM5 sensor chips were functionalized with about 10,000 RUs of α-mouse IgG capture antibody, using the Mouse Antibody Capture Kit and the Amine Coupling Kit (GE Healthcare) according to the manufacturer's recommendations. A blank-immobilized flow cell was used as reference, to compensate for nonspecific binding of antibodies or oligosaccharides to the sensor chip surface. Kinetic measurements were performed with the Biacore T100 Control software using the ‘Kinetics' function. PBS was used as running buffer and all measurements were performed at 25 °C and a flow rate of 30 μl min^−1. About 500 RUs of mAbs were captured at a concentration of 50 μg ml^−1 diluted in PBS and oligosaccharides or OAAs (in PBS) at the indicated concentrations were passed through, using the standard parameters for association and dissociation times unless mentioned otherwise. Flow cells were regenerated with 10 mM glycine-HCl pH 1.7 for 30 s. Kinetic evaluation of binding responses was performed with the Biacore T100 Evaluation software, using reference-subtracted sensorgrams. Two different kinetic models, a 1:1 binding Langmuir model and a two-state reaction model, which assumes a conformational change in the antibody–analyte complex, were used to fit the data. The fitting quality was evaluated by investigating respective residual plots, χ^2 and s.e. values for on- and off-rates. Both models yielded similar good fittings. We chose the 1:1 binding model over the two-state reaction model to calculate on- and off-rates, as well as KD values, as this model makes fewer assumptions. When on-rates and/or off-rates were outside of the measurable ranges of the instrument, the steady-state affinity model was used instead to determine KD values. […]

mAbs 2C5, 10A1 and 10D6 = assay: Glycan microarray binding of purified mAbs; set-up: species or system mouse; conditions: purified mAbs on microarray, 10 μg ml^−1
Text: Three hybridoma clones termed 2C5, 10A1 and 10D6 produced IgG exclusively binding to 1. […] The three mAbs were of the IgG1 subtype (Fig. 4b). Microarrays with PS-I oligosaccharide substructures were used to determine their binding specificities (Fig. 4c). […] No binding to oligoglucoses 5 and 6, or unrelated glycans 7 or 8 was seen (Fig. 4c,d). Based on these findings, we concluded that the requirements for anti-PS-I antibody binding were a terminal rhamnose that is 1→3 linked to a glucose, as present in glycans 1–3.
Figure 4 Characterization and epitope recognition patterns of anti-PS-I mAbs. (a) SDS–PAGE analysis of the purified mAbs showing bands corresponding to heavy and light IgG chains. (b) Isotyping analysis of the three mAbs. […] (d) Glycan microarray-inferred binding signals to selected PS-I antigens (1–4) expressed as background-subtracted mean fluorescence intensities (MFIs) are shown. […]
Microarray slides were blocked with 1% BSA in PBS (w/v) for 1 h at RT, washed three times with PBS and dried by centrifugation (300 g, 5 min). […] Slides were incubated with fluorescence-labelled secondary antibodies diluted 1:400 in 1% BSA in PBS (w/v) in a humid chamber for 1 h at RT, washed three times with 0.1% Tween-20 in PBS (v/v), rinsed once with deionized water and dried by centrifugation (300 g, 5 min) before scanning with a GenePix 4300A microarray scanner (Molecular Devices). […]

Row | Compound | fold lower KD values than minimal glycan epitope 3 ([1]; KD of 1 compared with 3) | Kd [1] [µM] | Glycan microarray binding signal (in words) (mAbs 2C5, 10A1 and 10D6)
1 | C[C@@H]1O[C@@H](O[C@@H]2[C@@H](O)[C@H](O[C@H]3[C@H](O[C@@H]4O[C@@H](C)[C@H](O)[C@@H](O)[C@H]4O)[C@@H](O)[C@@H](O[C@H]4[C@@H](OCCCCCN)O[C@H](CO)[C@@H](O)[C@@H]4O)O[C@@H]3CO)O[C@H](CO)[C@H]2O)[C@H](O)[C@H](O)[C@H]1O [Compound 1] | about 100 fold | 0.163 to 0.245 | Highest binding signals
2 | C[C@@H]1O[C@@H](O[C@@H]2[C@@H](O)[C@H](OCCCCCN)O[C@H](CO)[C@H]2O)[C@H](O)[C@H](O)[C@H]1O [Compound 3, Rha-(1→3)-Glc] | – | 5.9 to 37.5 | weaker signals
